Laboratory results published in ChEMBL document CHEMBL1201862, “PubChem BioAssay data set” (2004).
Active and inactive are the calls of the source.

Assays:
[1] = viability of uninfected HEp-2 cells – cell-based, HTS, cytotoxicity control for RSV inhibitor project, dose response (AID 2410); assay type: functional; conditions: human respiratory syncytial virus
[2] = target: T1, Long-chain-fatty-acid--AMP ligase FadD28 (Mycobacterium tuberculosis, UniProt P9WQ59); experiment: Fluorescence polarization aasay to screen for inhibitors that compete for the binding of FadD28 to a bisubstrate Measured in Biochemical System Using Plate Reader - 2147-01_Inhibitor_Dose_CherryPick_Activity.; assay type: functional, Mycobacterium tuberculosis H37Rv
T1 sequence (P9WQ59 whole entry): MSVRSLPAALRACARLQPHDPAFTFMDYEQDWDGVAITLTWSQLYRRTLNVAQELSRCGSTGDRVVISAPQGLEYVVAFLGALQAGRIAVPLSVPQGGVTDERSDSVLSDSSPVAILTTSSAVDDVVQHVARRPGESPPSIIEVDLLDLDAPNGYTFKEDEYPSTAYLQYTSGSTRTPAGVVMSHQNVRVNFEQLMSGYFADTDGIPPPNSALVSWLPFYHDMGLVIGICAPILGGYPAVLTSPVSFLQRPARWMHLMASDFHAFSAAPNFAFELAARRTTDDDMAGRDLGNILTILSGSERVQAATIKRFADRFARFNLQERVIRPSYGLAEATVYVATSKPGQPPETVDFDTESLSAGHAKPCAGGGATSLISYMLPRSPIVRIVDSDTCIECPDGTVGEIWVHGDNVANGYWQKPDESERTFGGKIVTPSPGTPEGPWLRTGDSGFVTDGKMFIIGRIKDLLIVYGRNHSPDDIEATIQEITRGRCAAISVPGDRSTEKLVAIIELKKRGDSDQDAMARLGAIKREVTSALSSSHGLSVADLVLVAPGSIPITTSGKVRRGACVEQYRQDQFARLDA

[3] = target: T2, Sentrin-specific protease 1 (Homo sapiens, UniProt Q9P0U3); experiment: Dose response confirmation of small molecule inhibitors of the catalytic domain of the SUMO protease, SENP1 in a FRET assay.; assay type: functional; conditions: read-out: IC50_Mean
T2 sequence (Q9P0U3 whole entry): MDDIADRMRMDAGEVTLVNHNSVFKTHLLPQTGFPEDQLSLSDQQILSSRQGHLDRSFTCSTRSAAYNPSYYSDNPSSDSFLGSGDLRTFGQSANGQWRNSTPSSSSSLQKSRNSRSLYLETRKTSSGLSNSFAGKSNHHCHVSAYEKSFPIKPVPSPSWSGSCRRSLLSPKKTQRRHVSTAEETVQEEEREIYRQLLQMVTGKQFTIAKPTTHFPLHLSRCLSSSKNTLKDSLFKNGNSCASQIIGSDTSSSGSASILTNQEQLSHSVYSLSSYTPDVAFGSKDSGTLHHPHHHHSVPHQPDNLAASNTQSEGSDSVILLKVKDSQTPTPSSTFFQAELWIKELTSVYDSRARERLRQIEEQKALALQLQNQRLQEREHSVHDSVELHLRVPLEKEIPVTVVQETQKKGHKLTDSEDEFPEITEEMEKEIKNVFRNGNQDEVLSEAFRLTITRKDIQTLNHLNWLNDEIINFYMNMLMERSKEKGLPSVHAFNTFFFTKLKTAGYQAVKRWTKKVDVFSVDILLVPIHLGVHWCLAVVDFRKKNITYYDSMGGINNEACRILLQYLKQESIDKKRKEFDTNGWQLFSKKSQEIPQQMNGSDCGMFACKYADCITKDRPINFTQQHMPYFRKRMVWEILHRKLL

[4] = target: T2, Sentrin-specific protease 1; experiment: SENP1 catalytic domain blockers, concentration series – biochemical, kinetic FRET, dose response (AID 651697); assay type: functional; conditions: read-out: IC50_Mean
Leucine aminopeptidase = target: T3, Leucine aminopeptidase (Plasmodium falciparum 3D7, UniProt Q8IL11); experiment: P. falciparum M17LAP inhibitors, primary screen, biochemical, fluorogenic H-Leu-NHMec substrate, 1536-well (AID 1619); assay type: functional
T3 sequence (Q8IL11 whole entry): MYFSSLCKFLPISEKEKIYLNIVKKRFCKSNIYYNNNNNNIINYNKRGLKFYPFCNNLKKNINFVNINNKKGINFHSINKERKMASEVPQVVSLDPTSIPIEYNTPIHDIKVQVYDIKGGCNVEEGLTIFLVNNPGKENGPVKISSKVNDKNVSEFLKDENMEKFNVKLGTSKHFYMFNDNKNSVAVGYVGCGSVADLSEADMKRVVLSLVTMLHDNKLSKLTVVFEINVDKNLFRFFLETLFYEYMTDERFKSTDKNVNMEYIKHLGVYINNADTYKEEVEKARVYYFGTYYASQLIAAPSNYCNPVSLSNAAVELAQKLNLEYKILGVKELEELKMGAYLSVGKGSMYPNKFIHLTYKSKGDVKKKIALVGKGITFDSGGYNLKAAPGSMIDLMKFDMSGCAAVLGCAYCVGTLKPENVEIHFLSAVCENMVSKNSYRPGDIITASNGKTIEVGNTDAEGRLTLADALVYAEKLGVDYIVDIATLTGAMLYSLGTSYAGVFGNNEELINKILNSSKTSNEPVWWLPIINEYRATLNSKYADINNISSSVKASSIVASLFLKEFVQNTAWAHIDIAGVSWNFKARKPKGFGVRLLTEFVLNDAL

[5] = target: T4, Carboxy-terminal domain RNA polymerase II polypeptide A small phosphatase 1 (Homo sapiens, UniProt Q9GZU7); experiment: CTDSP1 inhibitors, concentration-response, biochemical, absorbance readout, ultra-high-throughput screen actives (AID 540297); assay type: functional
T4 sequence (Q9GZU7 whole entry): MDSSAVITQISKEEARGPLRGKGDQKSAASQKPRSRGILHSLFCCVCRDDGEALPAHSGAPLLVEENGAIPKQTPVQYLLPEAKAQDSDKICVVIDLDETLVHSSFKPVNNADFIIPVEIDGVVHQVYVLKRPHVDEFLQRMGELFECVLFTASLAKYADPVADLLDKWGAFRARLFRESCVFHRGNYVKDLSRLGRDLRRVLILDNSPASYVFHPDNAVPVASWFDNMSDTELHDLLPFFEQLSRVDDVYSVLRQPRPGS

## COc1ccccc1NC(=O)Nc1nn(C)c2cccc(OC)c12
[1]
  CC50: 41.1 µM (active)
cells
  IC50: 41.2 µM (active)

## O=C(COc1ncnc2c1cnn2-c1ccccc1)Nc1ccc(S(=O)(=O)N2CCCCC2)cc1
[2]
  AC50: > 100 µM (inactive)

## CCc1ccccc1NC(=O)CN(C)C(=O)CSc1nnc(Nc2cccc(C)c2C)s1
[2]
  AC50: 4.79 µM (active)

## CCCOc1ccc(N2C(=O)CC(N(Cc3ccc(OC)cc3)C(S)=Nc3ccccc3)C2=O)cc1 (configuration not stated)
[1]
  CC50: > 50 µM (active)
cells
  IC50: 7.34 µM (active)

## COc1ccc(/C=C2\CCCc3c2nc2ccc(C)cc2c3C(=O)O)cc1O
[2]
  AC50: 79.3 µM (active)

## COc1cc(O)c(C=Nc2ccccc2NS(=O)(=O)c2ccc(C)cc2)c(OC)c1
[3]
  IC50: 15.2 µM (active)
[4]
  IC50: 16.1 µM (active)

## O=C(O)c1ccc(/C=N/NC(=O)c2cc(-c3ccc4c5c(cccc35)CC4)[nH]n2)cc1
Leucine aminopeptidase
  IC50: 26.8 µM (active)
[5]
  IC50: 4.31 µM (active)

## CCOc1cc(/C=C2\S/C(=N\c3ccccc3)N(c3ccccc3)C2=O)ccc1OCC(=O)O
Leucine aminopeptidase
  IC50: 31.3 µM (active)
